Consider eleven molecules from US10611756B2, “Method of treating pancreatitis using 1,4-benzoxazine derivatives” (GLAXOSMITHKLINE INTELLECTUAL PROPERTY DEVELOPMENT LIMITED, priority 2015, dated 2020).

Several values for one entry are separate records, joined by “and”; a condition that tells them apart may be missing. Equal values may be shown once.

The target in the test is human KMO (Homo sapiens, UniProt O15229). Description: KMO MS Rapidfire assay (RapidFire High-Throughput Mass Spectrometry, Method 1 or Method 2). The note with it: median pIC50, in at least one of the MS Rapidfire assays (Method 1 or 2); isolated human KMO-membranes, 10 μM Kynurenine, 200 μM NADPH; values exemplary only.
Sequence of human KMO (O15229 whole entry): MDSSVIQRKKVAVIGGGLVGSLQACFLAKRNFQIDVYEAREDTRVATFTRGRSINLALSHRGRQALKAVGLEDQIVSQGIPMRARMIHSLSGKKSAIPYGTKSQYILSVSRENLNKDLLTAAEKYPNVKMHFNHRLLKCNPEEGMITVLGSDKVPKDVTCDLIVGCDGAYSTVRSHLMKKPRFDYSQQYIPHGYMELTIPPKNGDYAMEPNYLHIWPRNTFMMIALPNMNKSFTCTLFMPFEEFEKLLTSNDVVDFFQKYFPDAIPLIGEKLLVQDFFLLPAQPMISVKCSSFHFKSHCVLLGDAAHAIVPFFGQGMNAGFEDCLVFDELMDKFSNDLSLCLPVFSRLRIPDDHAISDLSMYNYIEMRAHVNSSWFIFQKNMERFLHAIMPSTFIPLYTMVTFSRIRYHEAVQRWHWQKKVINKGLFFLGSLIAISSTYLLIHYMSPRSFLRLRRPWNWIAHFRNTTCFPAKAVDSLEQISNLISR
Protocol: KMO inhibition can be determined by MS Rapidfire assay performed on the human cloned enzyme as described herein.
100 nL DMSO was dispensed into columns 6 and 18 for high and low controls, respectively, with prior inactivation of the enzyme in column 18 by pre-dispense of 30 μL of 0.5% (v/v) TFA.
Conditions for the assay of human KMO using isolated KMO-membranes were 50 mM HEPES, pH 7.5, 2 mM DTT, 1 mM EDTA, 100 μM CHAPS, 200 μM NADPH, 10 μM Kynurenine and 8 μg/ml KMO-membranes in a total reaction volume of 10 μL.
Assays were performed by initially dispensing 5 μL of a 2× Enzyme solution (16 μg/ml KMO-membranes in 50 mM HEPES, pH 7.5, 2 mM DTT, 2 mM EDTA, 200 μM CHAPS) into plates containing 100 nL compounds and incubating for 10 min at ambient temperature. […] All additions were made using a Multidrop Combi dispenser (Thermo Fisher Scientific).
Quenched assay plates were transferred to a high-throughput RapidFire200 integrated autosampler/solid-phase extraction (SPE) system (Agilent Technologies, Wakefield, Mass.). Samples were aspirated from each well for 500 ms and 10 μL was loaded directly onto a RapidFire micro-scale SPE C18 (type C) cartridge, which was washed for 3 s with HPLC-grade water containing 0.1% (v/v) formic acid to remove non-organic components. Analytes were then eluted into the mass spectrometer, in a 3 s elution cycle, using 80% (v/v) acetonitrile/water containing 0.1% (v/v) formic acid, and the cartridge was then equilibrated by washing with water containing 0.1% (v/v) formic acid for 500 ms. This gave a total cycle time of 7 s, enabling analysis of a 384-well plate in approximately 45 min.
Both Kyn and 3-HK were detected using a Sciex AP14000 triple quadrupole mass spectrometer (Applied Biosystems, Concord, Ontario, Canada), equipped with an electrospray interface and operated in positive ion mode. […] The mass spectrometer used an ESI voltage of 5500 V and a source temperature of 600° C., with a dwell time of 50 ms for each transition.
Using the integrated peak area for 3-HK data was analysed within ActivityBase (ID Business Solutions Ltd, Surrey, UK). Dose response curves were fitted to equation (1):
100 nL DMSO was dispensed into columns 6 and 18 for high and low controls, respectively, with prior inactivation of the enzyme in column 18 by pre-dispense of 50 μL of 0.5% (v/v) TFA.
The term IC50 denotes the concentration at which inhibition is half-maximal. The low end stands for inhibition by little substance, the high end for a need for much substance. Turning to `Cc1ncc(C(C)Oc2cc3c(cc2Cl)N(CCC(=O)O)C(=O)CO3)o1` (racemic) [Example 3, 2-amino-2-(hydroxymethyl)propane-1,3-diol; 3-{6-chloro-7-[1-(2-methyl-1,3-oxazol-5-yl)ethoxy]-3-oxo-3,4-dihydro-2H-1,4-benzoxazin-4-yl}propanoic acid], the IC50 is ≤ 31.6 nM.

Turning to `CC(Oc1cc2c(cc1Cl)N(CCC(=O)O)C(=O)CO2)c1ncc[nH]1` (racemic) [Example 6, 2-amino-2-(hydroxymethyl)propane-1,3-diol; 3-{6-chloro-7-[1-(1H-imidazol-2-yl)ethoxy]-3-oxo-3,4-dihydro-2H-1,4-benzoxazin-4-yl}propanoic acid], the IC50 is ≤ 31.6 nM.

In the case of `CC(Oc1cc2c(cc1Cl)N(CCC(=O)O)C(=O)CO2)c1ncco1` (single isomer, unassigned) [Example 4, 2-amino-2-(hydroxymethyl)propane-1,3-diol; 3-{6-chloro-7-[1-(1,3-oxazol-2-yl)ethoxy]-3-oxo-3,4-dihydro-2H-1,4-benzoxazin-4-yl}propanoic acid], the IC50 is ≤ 31.6 nM.

For `CC(Oc1cc2c(cc1Cl)N(CCC(=O)O)C(=O)CO2)c1ncccn1` (single isomer, unassigned) [Example 7, 2-amino-2-(hydroxymethyl)propane-1,3-diol; 3-{6-chloro-3-oxo-7-[1-(pyrimidin-2-yl)ethoxy]-3,4-dihydro-2H-1,4-benzoxazin-4-yl}propanoic acid], the IC50 is ≤ 31.6 nM.

As to `CCC(Oc1cc2c(cc1Cl)N(CCC(=O)O)C(=O)CO2)c1ncccn1` (single isomer, unassigned) [Example 21, 3-{6-chloro-3-oxo-7-[1-(pyrimidin-2-yl)propoxy]-3,4-dihydro-2H-1,4-benzoxazin-4-yl}propanoic acid], the IC50 was ≤ 31.6 nM.

With `CCC(Oc1cc2c(cc1Cl)N(CCC(=O)O)C(=O)CO2)c1ncc(C)cn1` (single isomer, unassigned) [Example 23, 3-{6-chloro-7-[1-(5-methylpyrimidin-2-yl)propoxy]-3-oxo-3,4-dihydro-2H-1,4-benzoxazin-4-yl}propanoic acid], the IC50 is ≤ 31.6 nM.

In the case of `CCC(Oc1cc2c(cc1Cl)N(CCC(=O)O)C(=O)CO2)c1ncc(Cl)cn1` (single isomer, unassigned) [Example 26, 3-{6-chloro-7-[1-(5-chloropyrimidin-2-yl)propoxy]-3-oxo-3,4-dihydro-2H-1,4-benzoxazin-4-yl}propanoic acid], the IC50 is ≤ 31.6 nM.

Take `CCC(Oc1cc2c(cc1Cl)N(CCC(=O)O)C(=O)CO2)c1cccnn1` (single isomer, unassigned) [Example 28, 3-{6-chloro-3-oxo-7-[1-(pyridazin-3-yl)propoxy]-3,4-dihydro-2H-1,4-benzoxazin-4-yl}propanoic acid]: the IC50 was ≤ 31.6 nM.

As to `CCC(Oc1cc2c(cc1Cl)N(CCC(=O)O)C(=O)CO2)c1ccc(C)nn1` (single isomer, unassigned) [Example 29, 3-{6-chloro-7-[1-(6-methylpyridazin-3-yl)propoxy]-3-oxo-3,4-dihydro-2H-1,4-benzoxazin-4-yl}propanoic acid], the IC50 was ≤ 31.6 nM.

Regarding `CC[C@@H](Oc1cc2c(cc1Cl)N(CCC(=O)O)C(=O)CO2)c1ccc(Cl)cn1` [Example 1, (R)-3-(6-Chloro-7-(1-(5-chloropyridin-2-yl)propoxy)-3-oxo-2H-benzo[b][1,4]oxazin-4(3H)-yl)propanoic Acid], the IC50 was ≤ 31.6 nM and 1 nM.

Turning to `O=C(O)CCN1C(=O)COc2cc(OCc3ccccn3)c(Cl)cc21` [Example 9, 3-[6-chloro-3-oxo-7-(pyridin-2-ylmethoxy)-3,4-dihydro-2H-1,4-benzoxazin-4-yl]propanoic acid], the IC50 was ≤ 31.6 nM.
